The text below walks through data of patent publication US7521065B2, “Compositions for the treatment and prevention of cancer” (priority 2001, dated 2009).

In data set [1] the test system is normal embryonic liver or lung cells. To be noted: added to the growth media; cited from earlier work.
For data set [2], the system named is squamous carcinoma on nose. The experiment in a line: Topical cream treatment of squamous carcinoma, case report Example III. Format: in vivo, human. Particulars: cream containing 6%, twice per day for 5 days; person.
Data set [3] concerns several human cancer cell lines. Particulars: cell cultures; cited from earlier work.
In data set [4] the test system is metastatic cutaneous and subcutaneous lesions and affected lymph nodes (breast cancer). The experiment in a line: Topical treatment of breast cancer metastases, case report Example VI. In kind it is in vivo, human. The source says: In May 1998 a tumor was diagnosed in the left breast of a […] which had been treated for cancer of the right breast in 1974 by mastectomy, axillar resection, chemotherapy with cytoxan, metothrexate and 5-fluorouracil, and ovariectomy. In May 1999 they presented with numerous skin metastases on their upper torso and lymph node involvement. The patient underwent various therapies in Europe, which included chemotherapy, immunotherapy and hyperthermia, but numerous metastatic cutaneous and subcutaneous metastatic lesions remained on their chest, in the mastectomy scar, in the left axilla and on their back. […] As a precaution they are applying a lotion containing 0.2% solution of di-n-hexyl diselenide in jojoba oil onto areas of their skin once every two weeks.

The test system of data set [5] is lesion diagnosed as precancerous. The experiment in a line: Impregnated adhesive bandage on precancerous lesion, case report Example IV. To be noted: adhesive bandage impregnated with compound; person. Format: in vivo, human. The source says:
A person developed a lesion diagnosed as precancerous on the upper part of their back.

On data set [6], the source says:
The therapeutic efficacy of the dialkyl diselenides of these compositions depends on (1) the length of the alkyl residue R, and (2) the composition of the inert carrier as these determine the degree to which they can penetrate through the skin. […] Increasing the average alkyl chain length beyond n-hexyl causes them to become less skin penetrating and more suitable for the treatment of superficial cancerous lesions. Shortening the chain length below n-hexyl increases the volatility of these compounds. This reduces their therapeutic efficacy as it causes them to evaporate when brought onto the skin.
Selection of the appropriate alkyl residues R in these compounds is important as it determines their ability to penetrate the skin. Preferred are dialkyl diselenides with linear, medium-length straight alkyl residues of at least 6 and not exceeding 8 carbon atoms.

The test system of data set [7] is inoperable cancer of the rectum. The experiment in a line: Suppository treatment of rectal cancer, case report Example VIII. Format: in vivo, human. To be noted: suppositories containing 2% in cocoa butter, daily for 4 weeks. On the procedure:
A person was diagnosed with inoperable cancer of the rectum in 1998 and was offered radiation therapy, which they refused. A colostomy was performed in the fall of 1998. They applied suppositories containing 2% di-n-hexyl diselenide in cocoa butter daily into their rectum for a period of 4 weeks.

Data set [8] has as its system irregular melanotic spot on right hand. Description: Topical treatment of a melanotic spot, case report Example II. In kind it is in vivo, human. Particulars: 10% solution in 1:1 n-decane/n-dodecane, once every day for one week, person. The source says: A subject presented with a small irregular melanotic spot of approximately 3 mm diameter on their right hand which the subject had since birth but which in recent years had increased in size and became unsymmetrical. […] New skin growing over the lesion closed it without a scar.

The subject of data set [9] is small lump on breast. Description: Cream applied onto breasts, case report Example V. Format: in vivo, human. Particulars: 0.2% in moisturizing cream, once a week; person. The source says: A person with a small lump on their breast was told that they were at risk of developing breast cancer. They applied onto their breasts once a week a cream containing 0.2% di-n-hexyl diselenide in a moisturizing cream of conventional composition. […] They presently continue to apply the selenium composition once a week as a precautionary measure.

In data set [10] the test system is high nuclear grade intraductal carcinoma of the right breast. Description: Topical treatment of breast carcinoma, case report Example VII. Format: in vivo, human. The source says: A person was diagnosed in July 1999 with a high nuclear grade intraductal carcinoma of the right breast. The tumor consisted of a hard mass in the lower left quadrant of the right breast of 3 cm diameter. In November 1999, a 6% di n-hexyl diselenide in a 1:1 mixture of n-decane and jojoba oil was applied onto the affected breast once per day. […] Status Jan. […] Status April 2001: Unchanged.

For data set [11], the system named is skin lesion with all characteristics of a superficially spreading melanoma. The experiment in a line: Topical treatment of a skin lesion, case report Example I. Format: in vivo, human. Particulars: 10% solution in n-decane, twice a day for 3 days, person, lesion 0.8 cm. The source says:
A subject presented with a skin lesion of 0.8 cm diameter on their right upper chest.

As for `O=[Se](O)O` [sodium selenite], in [1], the “effect on normal cells” value is reported as “without affecting”.
`CCCCCCC[Se][Se]CCCCCCC` [di-n-heptyl diselenide]: in [2], the “outcome of squamous carcinoma lesion” value is recorded as “disappearance of the lesion”. Further, in data set [3], the “growth of cancer cell lines” value is “inhibit the growth”.
For `CCCCCC[SeH]` [n-hexyl selenol], the “outcome of recurrences on chest and metastases on back” value in data set [4] (10% solution in n-decane) is reported as “effectively controlled”. Further, the “follow-up after treatment of recurrences” value in data set [4] (after 10% solution in n-decane) is reported as “remained free of obvious signs of cancer for one year”.
As for `CCCCCCCC[Se][Se]CCCCCCCC` [di-n-octyl diselenide], the “outcome of precancerous lesion” value in data set [5] was “caused the lesion to dry out and drop off without a scar within 3 weeks”.
Take `CCCCCC[Se][Se]CCCCCC` [di-n-hexyl diselenide]: in data set [6], the skin penetration properties entry was “excellent skin penetration properties”. In [7], the “patient status during the following 2 years” value is “their status has remained stable, they gained weight, and was able to work”; the “tumor mass by X-ray and sonographic examinations” value is “the tumor mass had ceased to grow”. Besides, the “outcome of metastatic lesions and affected lymph nodes” value in data set [4] (5% in n-decane) was “caused their disappearance within two weeks”. Also, the follow-up after treatment result in data set [4] (after 5% in n-decane) is given as “remained free of cancer for two years”. The “outcome of melanotic spot” value in [8] is “caused the affected skin to turn brittle and to fall off”. Besides, the “outcome of breast lump” value in [9] was “lump in their breast disappeared over a period of two months”. Further, the “outcome of breast mass” value in data set [10] (6% in 1:1 n-decane/jojoba oil, once per day, breast mass 3 cm diameter) was “Over a period of 4 weeks the breast mass shrunk and ultimately disappeared”. For the same compound, the “status by ultrasonic examination” value in data set [10] (Status Jan. 8, 2000, unchanged April 2001) is “No breast mass detectable”. Also, the “outcome of skin lesion” value in data set [11] is recorded as “caused a layer of dead cells to be formed which dropped off after 4 days without leaving a scar”.
